Assay results reported in patent US20220412957A1, “METHODS OF TREATING CANCER PATIENTS WITH RAS NODE OR RTK TARGETED THERAPEUTIC AGENTS” (Celcuity Inc., priority 2019, published 2022).

System: LPA1-initiated signaling in HER2-negative/PI3K//ERK/MEK/RAF/mTOR Wild-Type breast tumor cell samples
Assay: impedance biosensor cell adhesion test, LPA1 agonist with RAS node inhibitors (Example 4)
Assay type: cell-based, human
Set-up: unit not given here
Excerpt: Tissue and cell samples: 28 HER2-negative/PI3K//ERK/MEK/RAF/mTOR Wild-Type breast tumor cell samples were studied. […] From these responses, the net amount of LPA1-initiated signaling involving PI3K-α, Class 1 PI3K-isoforms (pan-PI3K), Class 1 PI3K-isoforms and mTOR, Bcl-xL and Bcl-2, MEK, ERK, and RAF, individually and in combination, was quantified.
In this example, 14 of the 28 patient cell samples tested recorded output values with at least one of the targeted therapeutic(s) above 250. […] Five patients would be selected to receive treatment with gedatolisib, four would be selected to receive treatment with copanlisib, one patient would be selected to receive treatment with PLX7904, six patients would be selected to receive treatment with gedatolisib and PLX7904, seven patients would be selected to receive treatment with gedatolisib and ravoxertinib, nine patients would be selected to receive treatment with gedatolisib and trametinib, and 14 patients would be selected to receive treatment with gedatolisib and navitoclax.

[1] = sample C1838.01.155, cut-off 250
[2] = sample C1986.01.10, cut-off 250
[3] = sample C2090.01.14, cut-off 250
[4] = sample C2169.01.10, cut-off 250
[5] = sample C3091.01.13, cut-off 250
[6] = sample C3132.01.13, cut-off 250
[7] = sample C3311.01.10, cut-off 250
[8] = sample CL021.01.869, cut-off 250

| Structure (SMILES) | output value (sample C1816.01.6, cut-off 250) | output value [1] | output value (sample C1918.01.5, cut-off 250) | output value [2] | output value [3] | output value (sample C2167.01.4, cut-off 250) | output value [4] | output value (sample C2483.01.6, cut-off 250) | output value (sample C2693.01.2, cut-off 250) | output value (sample C2697.01.4, cut-off 250) | output value (sample C2729.01.4, cut-off 250) | output value (sample C2748.01.4, cut-off 250) | output value (sample C2792.01.2, cut-off 250) | output value (sample C2794.01.9, cut-off 250) | output value (sample C2868.01.6, cut-off 250) | output value (sample C2991.01.7, cut-off 250) | output value [5] | output value (sample C3101.01.6, cut-off 250) | output value [6] | output value [7] | further results |
| --- | --- | --- | --- | --- | --- | --- | --- | --- | --- | --- | --- | --- | --- | --- | --- | --- | --- | --- | --- | --- | --- |
| CCN(C)S(=O)(=O)Nc1ccc(F)c(C(=O)c2c[nH]c3ncc(-c4cnc(C5CC5)nc4)cc23)c1F [PLX7904] | 158 | −91 | −5 | −19 | −38 | 22 | 14 | 67 | −10 | −2 | −2 | 14 | 5 | 36 | −12 | 53 | 50 | 262 | 22 | −17 | output value (sample C3337.01.6, cut-off 250): 58; output value (sample C3377.01.2, cut-off 250): −58; output value (sample C3507.01.5, cut-off 250): 46; output value (sample C3730.01.9, cut-off 250): −173; output value (sample C3873.01.4, cut-off 250): 89; output value (sample C3957.01.6, cut-off 250): −22; output value (sample C4005.01.2, cut-off 250): −22; output value [8]: 19 |
| CN(C)C1CCN(C(=O)c2ccc(NC(=O)Nc3ccc(-c4nc(N5CCOCC5)nc(N5CCOCC5)n4)cc3)cc2)CC1 [gedatolisib] | 84 | 50 | 206 | 101 | 137 | 132 | 242 | 130 | 86 | 103 | 103 | 72 | 137 | 38 | 79 | 396 | 204 | 149 | 65 | 216 | output value (sample C3337.01.6, cut-off 250): 336; output value (sample C3377.01.2, cut-off 250): 113; output value (sample C3507.01.5, cut-off 250): 70; output value (sample C3730.01.9, cut-off 250): 494; output value (sample C3873.01.4, cut-off 250): 298; output value (sample C3957.01.6, cut-off 250): 74; output value (sample C4005.01.2, cut-off 250): 216; output value [8]: 353 |
| Cn1nccc1Nc1nccc(-c2ccn([C@H](CO)c3ccc(Cl)c(F)c3)c(=O)c2)n1 [ravoxertinib] | 96 | 108 | 65 | 26 | 48 | 7 | 14 | 12 | −55 | 55 | 10 | 60 | 24 | −24 | −36 | 10 | 67 | −12 | −22 | −67 | output value (sample C3337.01.6, cut-off 250): 53; output value (sample C3377.01.2, cut-off 250): 0; output value (sample C3507.01.5, cut-off 250): −24; output value (sample C3730.01.9, cut-off 250): −300; output value (sample C3873.01.4, cut-off 250): 43; output value (sample C3957.01.6, cut-off 250): −5; output value (sample C4005.01.2, cut-off 250): 12; output value [8]: −226 |
| CC(=O)Nc1cccc(-n2c(=O)n(C3CC3)c(=O)c3c(Nc4ccc(I)cc4F)n(C)c(=O)c(C)c32)c1 [trametinib] | 29 | 31 | 65 | 161 | 19 | −7 | 67 | 132 | −60 | 72 | 26 | 79 | 48 | −14 | −43 | −70 | 50 | 101 | 10 | 94 | output value (sample C3337.01.6, cut-off 250): 113; output value (sample C3377.01.2, cut-off 250): 149; output value (sample C3507.01.5, cut-off 250): −29; output value (sample C3730.01.9, cut-off 250): −204; output value (sample C3873.01.4, cut-off 250): −72; output value (sample C3957.01.6, cut-off 250): 10; output value (sample C4005.01.2, cut-off 250): 36; output value [8]: −226 |
